Test results published in US7264932B2, “Nuclease inhibitor cocktail” (Applera Corporation, priority 1999, dated 2007).

What was measured:
[1] = test system: total RNase activity in liver lysate; test: RNaseAlert fluorescent assay, liver lysate; type: biochemical, mouse; details: heated + 2.9 mM Ap5A
Experimental: (§1) Flash-frozen mouse tissues (5 mg) were dounced in 50 ul of 24 mM Hepes, pH 7.2, 50 mM NaCl, 1 mM MgCl2. RNase activity was measured using Ambion's fluorescent RNaseAlert™ assay ([…] substrate, 10 ug/ml ultrapure BSA) via BMG POLARstar Optima Fluorometer according to the manufacturer's protocol. In addition to measuring total RNase activity, lysates were treated with Ap5A, heat (90 C for 10 min), or 0.5 U/ul RIP. Tissue lysate dilutions: pancreas 1:16,200; liver 1:17; thymus 1:17; kidney 1:17; spleen 1:810; lung 1:810. The data were normalized to maximum RNase activity observed in tissue lysate with kidney being the tissue with the lowest RNase activity and assigned the arbitrary unit of 1. […] However, RIP is specific to RNase A superfamily enzymes, where Ap5A, as a RNA analogue, is expected to be a more general RNase inhibitor.

[2] = test system: total RNase activity in pancreas lysate; test: RNaseAlert fluorescent assay, pancreas lysate; type: biochemical, mouse
Experimental: as §1
Pancreatic tissue (5 mg) was dounced in 50ul of 24 mM Hepes, pH 7.2, 50 mM NaCl, 1 mM MgCl2. Diluted pancreas lysate (1:12,000) was subjected to a 1/10 volume of negatively charged SP resin. RNase activity of the clarified lysate was measured using. Ambion's fluorescent RNaseAlert™ assay (40 nM substrate, 10 ug/ml ultrapure BSA) via BMG POLARstar Optima, according to the manufacturer's instructions. Resin treatment removed >95% of total RNase activity in diluted pancreas lysate. […] In this case, inactivation is accomplished by binding of the positively-charged RNase to the negatively-charged sulfopropyl resin. Thus the RNases can be physically removed from the tissue lysate and separated from the RNA that they might otherwise degrade over time.

[3] = test system: total RNase activity in thymus lysate; test: RNaseAlert fluorescent assay, thymus lysate; type: biochemical, mouse; details: heated + 2.9 mM Ap5A
Experimental: as §1

[4] = test system: total RNase activity in kidney lysate; test: RNaseAlert fluorescent assay, kidney lysate; type: biochemical, mouse; details: heated + 2.9 mM Ap5A
Experimental: as §1

[5] = test system: diluted liver lysate; details: 5 mm edta, liver lysate 1:5, e. coli total rna, room temperature 5.5 min
Experimental: Tissues (5 mg) were dounced in 50 ul of non-denaturing, neutral ph buffer (24 mm hepes, ph 7.2, 50 mm nac1, 1 mm mgc12). Diluted tissue lysates (pancreas 1:20,000; liver 1:5) or 5 pg/ul bovine rnase a were pre-incubated with 0.2u/ul rip, 50 mm citrate or 5 mm edta for 30 sec. A total of 100 pg/ul e. Coli total rna was then added to the mixture and incubated at room temperature for an additional 4 min (FIG. 1., Lanes 1-5) or 5.5 min (lanes 6&7). […] The sample (1 ul) was analyzed by bioanalyzer 2100 after separation on an ma labchip.

[6] = test system: RNase A; test: Salt-based inhibition of RNase activity (RNaseAlert); type: biochemical, bovine; details: increasing salt concentrations, fluorescence 490/520 nm
[7] = test system: diluted pancreas lysate; test: Intactness of total RNA (RNA LabChip), diluted pancreas lysate; type: biochemical, mouse; details: 1% SDS, pancreatic lysate 1:20,000, mouse liver total RNA, 25 C 4 min
Experimental: A total of 100 pg/ul e. […].
Pancreatic lysate (0.1 mg/ml) was diluted 1:20,000 in 24 mM Hepes, pH 7.2, 50 mM NaCl, 1 mM MgCl2 and pre-incubated with either 1% SDS or 6.25 mM OVA for 30 s prior to the addition of 2 ug mouse liver total RNA. Reactions were incubated at 25 C for an additional 4 min, quenched, and analyzed on an RNA LabChip.
Mouse pancreatic tissue (5 mg) was disrupted in 50 ul of 24 mM Hepes, pH 7.2, 50 mM NaCl, 1 mM MgCl2. The diluted lysate (1:20,000) was pre-incubated with 50 uM Benzopurpurin B (BpB) for 30 sec and then added to 100 ng/ul mouse liver total RNA (Ambion) and incubated at 23 C for an additional 4 min. Samples were quenched in a guanidinium lysis buffer, and the RNA purified via MEGAclear™ MAG-96 and eluted with 20 ul nuclease-free water. […] These experiments were conducted in the same fashion except that 100 uM BpB was employed. The sample (1 ul) was analyzed by 2100 BioAnalyzer software (Agilent) after separation on an RNA LabChip.
Mouse pancreatic tissue (5 mg) was dounced in 50 ul of 24 mM Hepes, pH 7.2, 50 mM NaCl, 1 mM MgCl2. A diluted lysate (1:20,000) was pre-incubated with 100 uM BpB or the analog Benzopurpurin 4B (Bp4B) for 30 sec and then added to 100 ng/ul mouse liver total RNA (Ambion) and incubated at 23 C for an additional 4 min. Samples were quenched in a guanidinium lysis buffer, and the RNA purified via MEGAclear™ MAG-96 and eluted with 20 ul nuclease-free water. The sample (1 ul) was analyzed by 2100 BioAnalyzer software (Agilent) after separation on an RNA LabChip.
Pancreatic tissue (5 mg) was dounced in 50 ul of 24 mM Hepes, pH 7.2, 50 mM NaCl, 1 mM MgCl2. The lysate was diluted (1:20,000) and then pre-incubated with 200 uM of 467929. […] All samples were pre-incubated for 30 sec before being added to 100 ng/ul mouse liver total RNA (Ambion) and incubated at 23C for an additional 4 min. The RNA was then immediately purified via MEGAclear™ MAG-96 and eluted with 20 ul nuclease-free water. The recovered RNA (1 ul) was analyzed by 2100 BioAnalyzer software after separation on an RNA LabChip.

[8] = test system: RNase A, 1, and T1; test: Anti-RNase antibodies / Specific Anti-RNase Cocktail with added non-antibody inhibitor; type: biochemical
Experimental: (§2) The activity of an anti-nuclease cocktail is readily determined using radiolabeled RNA or DNA to detect the inhibition of nuclease by anti-nuclease antibodies in the anti-nuclease cocktail. […] Assay buffer, nuclease and an anti-nuclease cocktail are then added to 0.5 ml microfuge tubes. A mixture comprising assay buffer, RNA or DNA and radiolabeled RNA or DNA is added to the microfuge tubes, and the tubes are vortexed and microfuged. After incubation of the tubes at 37° C. for 30 minutes, a portion of the tube contents is removed and placed into gel loading buffer. After mixing, the combination is loaded onto a gel, typically a 8M urea/5% acrylamide gel, which is exposed to film.
(§3) Radiolabeled RNA was used to detect the inhibition of RNase A, RNase T1, and RNase 1 by specific antibodies.
(§4) The “MIX” was prepared by combining 10× Assay Buffer (0.9 μl/rxn), 5 mg/ml yeast RNA (0.4 μl/rxn), ^32P-labeled β actin RNA (1 μl/rxn), and nuclease-free H2O (6.7 μl/rxn), for a total of 9 μl/rxn.
(§5) 1× Assay Buffer was added first. Then Specific RNase Cocktail, Specific Anti-RNase Cocktail and MIX were added. The tubes are vortexed and microfuged, then incubated at 37° C. for 30 min (Table 9).
(§6) At the end of the incubation time, 10 μl of solution was removed from the tube and placed into 10 μl Gel Loading Buffer II. The combination was mixed thoroughly and loaded onto a 8M urea/5% acrylamide gel. The gel was exposed to film for 30 min. at −80° C. with an intensifying screen.

[9] = target: T1, RNase A (Bos taurus, UniProt P61823); test: Radiolabeled RNA probe degradation gel assay, RNase A; type: biochemical
T1 sequence (P61823 27-150): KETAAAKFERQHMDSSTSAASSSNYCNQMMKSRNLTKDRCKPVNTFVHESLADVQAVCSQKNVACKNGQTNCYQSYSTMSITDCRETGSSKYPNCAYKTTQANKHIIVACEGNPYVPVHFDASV
Experimental: as §2, §3, §4, §5, §6

[10] = target: T2, RNase T1 (Aspergillus oryzae, UniProt P00651); test: Radiolabeled RNA probe degradation gel assay, RNase T1; type: biochemical; details: 2.5 to 5 ug of heparin
T2 sequence (P00651 27-130): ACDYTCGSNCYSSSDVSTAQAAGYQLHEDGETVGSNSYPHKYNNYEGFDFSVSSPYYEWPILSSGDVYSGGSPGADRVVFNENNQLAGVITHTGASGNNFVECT
Experimental: The activity of anti-nuclease antibodies is readily determined using radiolabeled RNA or DNA to detect the inhibition of RNase or DNase by the anti-nuclease antibodies. In general, the nuclease and anti-nuclease antibody are separately diluted, typically in 1× assay buffer. Assay buffer, nuclease and anti-nuclease antibody are then added to 0.5 ml microfuge tubes. For assaying anti-RNase activity, a mixture comprising assay buffer, RNA and radiolabeled RNA is added to the microfuge tubes. The “MIX” of assay buffer, RNA and radiolabeled RNA is generally prepared by combining 10× Assay Buffer (0.9 μl/rxn), 5 mg/ml yeast RNA (0.4 μl/rxn), ^32-β actin RNA (1 μl/rxn), and nuclease-free H2O (6.7 μl/rxn) for a total of 9 μl/rxn. The tubes are vortexed and microfuged, then incubated at 37° C. for 30 minutes. After incubation, a portion of the tube contents is removed and placed into gel loading buffer. Then the tube contents and the gel loading buffer are mixed, and the combination is loaded onto a gel, typically a 8M urea/5% acrylamide gel, which is exposed to film. […]
The activity of an anti-nuclease cocktail is readily determined using radiolabeled RNA or DNA to detect the inhibition of nuclease by anti-nuclease antibodies in the anti-nuclease cocktail. […]

Question: How did the “% Inhibition” value [1] turn out when `Nc1ncnc2c1ncn2[C@@H]1O[C@H](COP(=O)(O)OP(=O)(O)OP(=O)(O)OP(=O)(O)OP(=O)(O)OC[C@H]2O[C@@H](n3cnc4c(N)ncnc43)[C@H](O)[C@@H]2O)[C@@H](O)[C@H]1O` [Ap5A] was run?
Answer: Its value is 97.2%.

Question: What about the Slope/sec [1] of the same compound?
Answer: Its Slope/sec is 0.46.

Question: What about the “% Inhibition” value ([2]; Pancreas + 232 uM Ap5A) of the same compound?
Answer: The value was 44.3%.

Question: What about the Slope/sec ([2]; Pancreas + 232 uM Ap5A) of the same compound?
Answer: Its Slope/sec is 13.58.

Question: What about the “% Inhibition” value ([2]; Pancreas + 1.3 mM Ap5A) of the same compound?
Answer: The value was 87.5%.

Question: And the Slope/sec ([2]; Pancreas + 1.3 mM Ap5A)?
Answer: The Slope/sec was 3.05.

Question: And the “% Inhibition” value ([2]; Pancreas + 2.9 mM Ap5A)?
Answer: The value was 97.7%.

Question: And the Slope/sec ([2]; Pancreas + 2.9 mM Ap5A)?
Answer: Its Slope/sec is 0.55.

Question: And the “% Inhibition” value [3]?
Answer: The value was 88.5%.

Question: And the Slope/sec [3]?
Answer: Its Slope/sec is 0.33.

Question: What about the “% Inhibition” value [4] of the same compound?
Answer: The value was 98.9%.

Question: And the Slope/sec [4]?
Answer: The Slope/sec was 0.02.

Question: With `O=C(O)CN(CCN(CC(=O)O)CC(=O)O)CC(=O)O` [EDTA, ethylenediamine tetraacetic acid] as the compound, how does the “protection of total RNA from degradation” value [5] read?
Answer: The value was “significant protection”.

Question: With `O=C([O-])CC(O)(CC(=O)[O-])C(=O)[O-].[Na+].[Na+].[Na+]` [NaCitrate] as the compound, how does the “effect on RNase A activity” value [6] read?
Answer: Its value is “Inhibits”.

Question: How did the “effect on RNase A activity” value [6] turn out when `[Cl-].[Na+]` [NaCl] was run?
Answer: The value was “inhibits”.

Question: `CCCCCCCCCCCCOS(=O)(=O)[O-].[Na+]` [SDS, sodium dodecyl sulfate] was tested. Which “protection of RNA from degradation” value [7] did it give?
Answer: The value was “help remedy RNA degradation”.

Question: What about the “effect on anti-RNase A, 1, and T1 action of Specific Anti-RNase Cocktail” value ([8]; 0.1–0.5% SDS added to cocktail) of the same compound?
Answer: The value was “Addition of 0.1–0.5% SDS to Specific Anti-RNase Cocktail strengthened anti-”.

Question: And the “concentration that inhibited activity of RNase A” value ([9]; 50 pg of RNase A)?
Answer: Its value is 0.25% SDS inhibited activity of 50 pg of RNase A.

Question: With `NC(N)=O` [urea] as the compound, how does the “effect on action of Specific Anti-RNase Cocktail” value ([8]; 6 M urea added to cocktail) read?
Answer: Its value is “Anti-Rnase Cocktail strengthened the action of Specific Anti-RNase Cocktail”.

Question: And the “concentration that inhibited RNase A activity” value [9]?
Answer: The value was 6 M urea inhibited RNase A activity. This concentration of urea added to the Specific.

Question: For heparin, which “effect on activity of Rnases T1” value [10] is on record?
Answer: Its value is “*This amount of heparin did not effect the activities of RNases A and Rnases T1”.

Question: What about the “effect on activity of RNases A” value ([9]; 2.5 to 5 ug of heparin) of the same compound?
Answer: The value was “*This amount of heparin did not effect the activities of RNases A and Rnases T1”.
